# Test results: US20250051344A1, “BIFUNCTIONAL SELECTIVE DEGRADERS OF SMARCA2 AND THERAPEUTIC USES THEREOF” (Nurix Therapeutics, Inc., priority 2023, published 2025)
# Columns and labels:
# SMARCA4 = target: T1, SMARCA4 (Homo sapiens, UniProt P51532); test: Cellular degradation assay, SMARCA4 (Table 1); type: cell-based
# T1 construct: endogenous in cells
# SMARCA2 = target: T2, SMARCA2 (Homo sapiens, UniProt P51531); test: SMARCA2 Cellular Degradation Assay (Western blot analysis on Jess platform); type: cell-based; conditions: for Dmax / DC50: cellular degradation; for Fold Selectivity SMARCA4/2: ratio DC50 SMARCA4 / DC50 SMARCA2
# T2 construct: endogenous in cells
# T2 sequence (P51531 whole entry, species assumed): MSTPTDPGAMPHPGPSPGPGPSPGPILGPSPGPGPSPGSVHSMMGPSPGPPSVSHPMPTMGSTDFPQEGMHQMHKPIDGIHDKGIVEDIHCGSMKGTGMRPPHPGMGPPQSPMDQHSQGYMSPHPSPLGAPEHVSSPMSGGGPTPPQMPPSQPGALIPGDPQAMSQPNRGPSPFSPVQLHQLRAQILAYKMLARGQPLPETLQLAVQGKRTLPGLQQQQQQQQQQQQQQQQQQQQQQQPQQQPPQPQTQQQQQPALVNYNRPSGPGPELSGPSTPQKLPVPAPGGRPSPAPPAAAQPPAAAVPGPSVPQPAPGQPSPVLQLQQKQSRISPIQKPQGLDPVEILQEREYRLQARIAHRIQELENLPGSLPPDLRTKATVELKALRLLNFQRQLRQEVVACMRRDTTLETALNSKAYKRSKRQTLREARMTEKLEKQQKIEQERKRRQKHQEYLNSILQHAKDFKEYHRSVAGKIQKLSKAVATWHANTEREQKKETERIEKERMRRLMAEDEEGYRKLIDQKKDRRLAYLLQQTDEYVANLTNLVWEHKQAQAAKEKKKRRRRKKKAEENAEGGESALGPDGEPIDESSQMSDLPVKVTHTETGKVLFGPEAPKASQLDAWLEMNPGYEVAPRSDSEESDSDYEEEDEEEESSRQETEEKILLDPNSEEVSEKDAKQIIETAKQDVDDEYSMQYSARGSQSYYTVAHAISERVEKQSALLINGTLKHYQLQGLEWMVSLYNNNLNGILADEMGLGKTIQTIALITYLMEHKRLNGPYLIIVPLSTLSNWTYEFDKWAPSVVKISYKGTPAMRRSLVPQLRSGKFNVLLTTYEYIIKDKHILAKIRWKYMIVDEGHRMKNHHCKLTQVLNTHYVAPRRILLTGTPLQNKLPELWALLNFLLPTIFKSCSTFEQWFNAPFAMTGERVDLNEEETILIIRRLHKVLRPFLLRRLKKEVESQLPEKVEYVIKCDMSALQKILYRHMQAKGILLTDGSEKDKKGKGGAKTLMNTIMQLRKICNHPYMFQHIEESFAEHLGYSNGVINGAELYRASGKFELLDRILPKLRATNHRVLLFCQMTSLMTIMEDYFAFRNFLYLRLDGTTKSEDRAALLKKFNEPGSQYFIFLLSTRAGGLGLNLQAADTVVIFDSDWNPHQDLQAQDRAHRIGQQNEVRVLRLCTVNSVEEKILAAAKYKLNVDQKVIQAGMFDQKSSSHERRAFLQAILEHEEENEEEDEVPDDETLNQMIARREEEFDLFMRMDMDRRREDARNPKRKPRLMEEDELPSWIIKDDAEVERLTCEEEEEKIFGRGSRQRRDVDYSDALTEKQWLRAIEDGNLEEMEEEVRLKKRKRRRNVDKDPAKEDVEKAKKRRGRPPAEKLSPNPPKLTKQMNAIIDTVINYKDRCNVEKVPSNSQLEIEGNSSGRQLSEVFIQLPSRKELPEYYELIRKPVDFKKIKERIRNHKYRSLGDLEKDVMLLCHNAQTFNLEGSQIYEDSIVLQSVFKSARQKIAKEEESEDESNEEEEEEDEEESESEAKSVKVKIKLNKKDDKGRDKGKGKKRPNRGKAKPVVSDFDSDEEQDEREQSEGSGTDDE
# Outline: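 Tumor-derived cell pellets (5×10E5-1×10E6 live cells) lysed in RIPA + 0.2% SDS, phosphatase/protease inhibitors, benzonase; 5 μg protein/capillary on Jess; chemiluminescence/fluorescence immunoassay; SMARCA2/actin peak area, % of vehicle.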
# T1 sequence (P51532 whole entry, species assumed): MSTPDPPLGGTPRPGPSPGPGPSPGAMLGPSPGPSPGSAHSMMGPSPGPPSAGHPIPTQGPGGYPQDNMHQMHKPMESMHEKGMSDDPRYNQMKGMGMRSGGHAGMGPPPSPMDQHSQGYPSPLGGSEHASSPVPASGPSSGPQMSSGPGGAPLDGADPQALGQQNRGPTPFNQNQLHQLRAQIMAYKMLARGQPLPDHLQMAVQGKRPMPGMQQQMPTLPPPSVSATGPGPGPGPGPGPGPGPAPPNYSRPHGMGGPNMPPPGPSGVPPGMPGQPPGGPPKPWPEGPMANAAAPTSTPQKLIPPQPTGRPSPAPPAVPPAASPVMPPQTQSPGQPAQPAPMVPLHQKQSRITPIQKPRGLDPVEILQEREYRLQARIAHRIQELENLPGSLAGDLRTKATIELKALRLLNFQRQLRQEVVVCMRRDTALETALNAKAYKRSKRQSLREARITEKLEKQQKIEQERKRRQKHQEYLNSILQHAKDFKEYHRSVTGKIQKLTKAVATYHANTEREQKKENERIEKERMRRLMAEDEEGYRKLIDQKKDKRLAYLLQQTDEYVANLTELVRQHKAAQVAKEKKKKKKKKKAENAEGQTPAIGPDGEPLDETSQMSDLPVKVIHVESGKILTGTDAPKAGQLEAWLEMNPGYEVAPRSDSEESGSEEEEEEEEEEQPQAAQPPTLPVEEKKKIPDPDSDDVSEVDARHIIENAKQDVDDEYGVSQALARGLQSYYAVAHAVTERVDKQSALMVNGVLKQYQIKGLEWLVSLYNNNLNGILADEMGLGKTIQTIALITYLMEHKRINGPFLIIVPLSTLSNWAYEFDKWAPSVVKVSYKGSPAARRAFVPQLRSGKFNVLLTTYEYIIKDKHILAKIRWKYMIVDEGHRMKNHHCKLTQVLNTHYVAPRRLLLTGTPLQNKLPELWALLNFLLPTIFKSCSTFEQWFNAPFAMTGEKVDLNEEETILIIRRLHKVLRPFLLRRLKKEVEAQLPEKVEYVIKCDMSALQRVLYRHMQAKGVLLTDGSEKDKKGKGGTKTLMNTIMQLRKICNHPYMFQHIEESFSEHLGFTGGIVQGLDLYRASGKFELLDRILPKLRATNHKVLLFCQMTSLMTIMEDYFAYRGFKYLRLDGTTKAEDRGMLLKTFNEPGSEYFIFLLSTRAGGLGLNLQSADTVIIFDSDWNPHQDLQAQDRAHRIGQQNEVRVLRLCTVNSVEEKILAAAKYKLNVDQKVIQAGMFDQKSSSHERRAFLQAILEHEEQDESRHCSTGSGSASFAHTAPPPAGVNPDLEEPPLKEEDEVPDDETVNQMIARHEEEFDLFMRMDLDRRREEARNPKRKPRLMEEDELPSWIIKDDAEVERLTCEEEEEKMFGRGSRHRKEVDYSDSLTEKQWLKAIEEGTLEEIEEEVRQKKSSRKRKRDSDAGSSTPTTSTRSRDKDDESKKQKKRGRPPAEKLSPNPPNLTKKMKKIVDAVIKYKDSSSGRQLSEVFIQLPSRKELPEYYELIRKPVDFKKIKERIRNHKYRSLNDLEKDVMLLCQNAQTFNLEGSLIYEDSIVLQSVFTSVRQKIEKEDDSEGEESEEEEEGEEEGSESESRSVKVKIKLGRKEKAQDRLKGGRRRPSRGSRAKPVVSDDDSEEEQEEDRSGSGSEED
Dmax (SMARCA4) [%],Dmax (SMARCA2) [%],Fold Selectivity SMARCA4/2 (SMARCA2),DC50 (SMARCA4) [nM],DC50 (SMARCA2) [nM],Structure (SMILES)
0.85,26.7,1,,,"O=C1CC[C@H](c2ccc(N3CCC(CN4CCC5CN(C(=O)C6(c7ccccc7)CCN(c7cnnc(-c8ccccc8O)c7)CC6)C5C4)CC3)cc2)C(=O)N1 (stereo partly drawn) [Example 51, (3R)-3-(4-{4-[(8-{1-[6-(2-hydroxyphenyl)pyridazin-4-yl]-4-phenylpiperidine-4-carbonyl}-3,8-diazabicyclo[4.2.0]octan-3-yl)methyl]piperidin-1-yl}phenyl)piperidine-2,6-dione]"
13.7,44,1,,,"O=C1CC[C@H](c2ccc(N3CCC(CN4CC(F)(F)C5(C4)CN(C(=O)C4(c6ccccc6)CCN(c6cnnc(-c7ccccc7O)c6)CC4)C5)CC3)cc2)C(=O)N1 [Example 52, (3R)-3-(4-{4-[(8,8-difluoro-2-{1-[6-(2-hydroxyphenyl)pyridazin-4-yl]-4-phenylpiperidine-4-carbonyl}-2,6-diazaspiro[3.4]octan-6-yl)methyl]piperidin-1-yl}phenyl)piperidine-2,6-dione]"
9.06,47.2,1,,,"O=C1CC[C@H](c2ccc(N3CCC(CN4CCN(C(=O)C5(c6ccccc6)CCN(c6cnnc(-c7ccccc7O)c6)CC5)CCC4C(F)(F)F)CC3)cc2)C(=O)N1 (stereo partly drawn) [Example 53, (3R)-3-(4-(4-((4-(1-(6-(2-hydroxyphenyl)pyridazin-4-yl)-4-phenylpiperidine-4-carbonyl)-7-(trifluoromethyl)-1,4-diazepan-1-yl)methyl)piperidin-1-yl)phenyl)piperidine-2,6-dione]"
69.2,94.2,32,59.3,1.88,"O=C1CC[C@H](c2ccc(N3CCC(CCN4CCC(N(C(=O)C5(c6ccccc6)CCN(c6cnnc(-c7ccccc7O)c6)CC5)C5CC5)CC4)CC3)cc2)C(=O)N1 [Example 74, N-cyclopropyl-N-{1-[2-(1-{4-[(3r)-2,6-dioxopiperidin-3-yl]phenyl}piperidin-4-yl)ethyl]piperidin-4-yl}-1-[6-(2-hydroxyphenyl)pyridazin-4-yl]-4-phenylpiperidine-4-carboxamide]"
41.9,90.9,1220,,8.19,"COc1ccccc1C1(C(=O)N(C)C2CCN(CCC3CCN(c4ccc([C@H]5CCC(=O)NC5=O)c(F)c4)CC3)CC2)CCN(c2cnnc(-c3ccccc3O)c2)CC1 [Example 85, N-{1-[2-(1-{4-[(3R)-2,6-dioxopiperidin-3-yl]-3-fluorophenyl}piperidin-4-yl)ethyl]piperidin-4-yl}-1-[6-(2-hydroxyphenyl)pyridazin-4-yl]-4-(2-methoxyphenyl)-N-methylpiperidine-4-carboxamide]"
66.4,92.4,34,115,3.4,"CCCN(C(=O)C1(c2ccccc2)CCN(c2cnnc(-c3ccccc3O)c2)CC1)C1CCN(CCC2CCN(c3ccc([C@H]4CCC(=O)NC4=O)cc3)CC2)CC1 [Example 100, N-{1-[2-(1-{4-[(3R)-2,6-dioxopiperidin-3-yl]phenyl}piperidin-4-yl)ethyl]piperidin-4-yl}-1-[6-(2-hydroxyphenyl)pyridazin-4-yl]-4-phenyl-n-propylpiperidine-4-carboxamide]"
49.9,78.6,1006,,9.94,"CN(C(=O)C1(OC2CC2)CCN(c2cnnc(-c3ccccc3O)c2)CC1)C1CCN(CC2CCN(c3ccc([C@H]4CCC(=O)NC4=O)cc3)CC2)CC1 [Example 114, (r)-4-cyclopropoxy-n-(1-((1-(4-(2,6-dioxopiperidin-3-yl)phenyl)piperidin-4-yl)methyl)piperidin-4-yl)-1-(6-(2-hydroxyphenyl)pyridazin-4-yl)-n-methylpiperidine-4-carboxamide]"
79.4,89.2,6,20.3,3.52,"O=C1CC[C@H](c2ccc(N3CCC(CN4CC5(C4)CN(C(=O)C4(Oc6ccccc6Cl)CCN(c6cnnc(-c7ccccc7O)c6)CC4)C5)CC3)cc2)C(=O)N1 [Example 119, (r)-3-(4-(4-((6-(4-(2-chlorophenoxy)-1-(6-(2-hydroxyphenyl)pyridazin-4-yl)piperidine-4-carbonyl)-2,6-diazaspiro[3.3]heptan-2-yl)methyl)piperidin-1-yl)phenyl)piperidine-2,6-dione]"
50,78.4,1316,,7.6,"COC1(C(=O)N2CCC3(CC2)CN(CC2CCN(c4ccc([C@H]5CCC(=O)NC5=O)cc4)CC2)C3)CCN(c2cnnc(-c3ccccc3O)c2)CC1 [Example 120, (r)-3-(4-(4-((7-(1-(6-(2-hydroxyphenyl)pyridazin-4-yl)-4-methoxypiperidine-4-carbonyl)-2,7-diazaspiro[3.5]nonan-2-yl)methyl)piperidin-1-yl)phenyl)piperidine-2,6-dione]"
35,66.8,147,,68.1,"Cn1nc(N2CCC(=O)NC2=O)c2cccc(N3CCC(CN4CC5(C4)CN(C(=O)C4(c6ccccc6)CCN(c6cnnc(-c7ccccc7O)c6)CC4)C5)CC3)c21 [Example 123, 1-(7-{4-[(6-{1-[6-(2-hydroxyphenyl)pyridazin-4-yl]-4-phenylpiperidine-4-carbonyl}-2,6-diazaspiro[3.3]heptan-2-yl)methyl]piperidin-1-yl}-1-methyl-1H-indazol-3-yl)-1,3-diazinane-2,4-dione]"
62.5,82,6,36.9,6.01,"CN(C(=O)C1(Oc2ccn(C)n2)CCN(c2cnnc(-c3ccccc3O)c2)CC1)C1CCN(CC2CCN(c3ccc([C@H]4CCC(=O)NC4=O)cc3)CC2)CC1 [Example 125, (r)-n-(1-((1-(4-(2,6-dioxopiperidin-3-yl)phenyl)piperidin-4-yl)methyl)piperidin-4-yl)-1-(6-(2-hydroxyphenyl)pyridazin-4-yl)-n-methyl-4-((1-methyl-1h-pyrazol-3-yl)oxy)piperidine-4-carboxamide]"
74.8,90.5,8,20.5,2.5,"COc1ccccc1C1(C(=O)N(C)C2CCN(CC3CCN(c4ccc([C@H]5CCC(=O)NC5=O)cc4)CC3)CC2)CCN(c2cnnc(-c3ccccc3O)c2)CC1 [Example 133, N-{1-[(1-{4-[(3R)-2,6-dioxopiperidin-3-yl]phenyl}piperidin-4-yl)methyl]piperidin-4-yl}-1-[6-(2-hydroxyphenyl)pyridazin-4-yl]-4-(2-methoxyphenyl)-n-methylpiperidine-4-carboxamide]"
61.9,74.2,9,191,20.7,"O=C1CC[C@@H](c2ccc(N3CCC(CN4CCC(NCC5(c6ccccc6)CCN(c6cnnc(-c7ccccc7O)c6)CC5)CC4)CC3)cc2)C(=O)N1 [Example 135, (s)-3-(4-(4-((4-(((1-(6-(2-hydroxyphenyl)pyridazin-4-yl)-4-phenylpiperidin-4-yl)methyl)amino)piperidin-1-yl)methyl)piperidin-1-yl)phenyl)piperidine-2,6-dione]"
54,89.2,37,167,4.55,"COc1cccc(C2(C(=O)N(C)C3CCN(CCC4CCN(c5ccc([C@H]6CCC(=O)NC6=O)cc5)CC4)CC3)CCN(c3cnnc(-c4ccccc4O)c3)CC2)c1 [Example 139, N-{1-[2-(1-{4-[(3R)-2,6-dioxopiperidin-3-yl]phenyl}piperidin-4-yl)ethyl]piperidin-4-yl}-1-[6-(2-hydroxyphenyl)pyridazin-4-yl]-4-(3-methoxyphenyl)-N-methylpiperidine-4-carboxamide]"
31.2,86.9,2641,,3.79,"CN(C(=O)C1(c2ccncc2)CCN(c2cnnc(-c3ccccc3O)c2)CC1)C1CCN(CCC2CCN(c3ccc([C@H]4CCC(=O)NC4=O)cc3)CC2)CC1 [Example 140, N-{1-[2-(1-{4-[(3R)-2,6-dioxopiperidin-3-yl]phenyl}piperidin-4-yl)ethyl]piperidin-4-yl}-1-[6-(2-hydroxyphenyl)pyridazin-4-yl]-N-methyl-4-(pyridin-4-yl)piperidine-4-carboxamide]"
65.6,87.7,8,22.3,2.87,"Cc1cnn(C2(C(=O)N(C)C3CCN(CC4CCN(c5ccc([C@H]6CCC(=O)NC6=O)cc5)CC4)CC3)CCN(c3cnnc(-c4ccccc4O)c3)CC2)c1 [Example 154, N-{1-[(1-{4-[(3R)-2,6-dioxopiperidin-3-yl]phenyl}piperidin-4-yl)methyl]piperidin-4-yl}-1-[6-(2-hydroxyphenyl)pyridazin-4-yl]-N-methyl-4-(4-methyl-1H-pyrazol-1-yl)piperidine-4-carboxamide]"
36,63.2,260,,38.5,"O=C1CC[C@H](NC(=O)c2ccc(N3CCC(CN4CCC(NC(=O)C5(c6ccccc6)CCN(c6cnnc(-c7ccccc7O)c6)CC5)CC4)CC3)nc2)C(=O)N1 [Example 156, N-[(3S)-2,6-dioxopiperidin-3-yl]-6-{4-[(4-{l-[6-(2-hydroxyphenyl)pyridazin-4-yl]-4-phenylpiperidine-4-amido}piperidin-1-yl)methyl]piperidin-1-yl}pyridine-3-carboxamide]"
